Patent EP3095787A1, “[…] ACTIVE COMPOUNDS AS DAG-LIPASE INHIBITORS” (Universiteit Leiden, priority 2015, dated 2016)

Biological target: T1, FAAH (Mus musculus, UniProt O08914)
T1 construct: For gel based ABPP experiments mouse brain proteome (2.0 mg/mL, 20 µL) was preincubated; from tissue; host or cells: mouse brain proteome
T1 sequence (O08914 1-579): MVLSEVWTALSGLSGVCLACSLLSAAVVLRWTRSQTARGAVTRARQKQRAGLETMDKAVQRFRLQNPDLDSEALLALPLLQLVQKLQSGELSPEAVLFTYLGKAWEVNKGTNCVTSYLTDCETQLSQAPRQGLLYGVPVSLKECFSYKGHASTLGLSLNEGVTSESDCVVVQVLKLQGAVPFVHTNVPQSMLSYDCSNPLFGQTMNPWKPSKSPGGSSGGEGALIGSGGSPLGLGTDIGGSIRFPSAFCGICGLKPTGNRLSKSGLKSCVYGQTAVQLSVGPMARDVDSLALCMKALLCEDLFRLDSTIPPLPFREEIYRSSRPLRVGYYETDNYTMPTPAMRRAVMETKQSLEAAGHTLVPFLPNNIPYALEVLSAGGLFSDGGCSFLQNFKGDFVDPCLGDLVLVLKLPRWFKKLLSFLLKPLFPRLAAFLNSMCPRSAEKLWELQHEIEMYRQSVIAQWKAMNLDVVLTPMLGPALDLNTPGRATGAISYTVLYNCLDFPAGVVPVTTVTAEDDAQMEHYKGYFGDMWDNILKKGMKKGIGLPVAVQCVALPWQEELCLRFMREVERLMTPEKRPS
Assay: Gel based competitive ABPP selectivity assay with TAMRA-FP in mouse brain proteome (FAAH band)
Format: biochemical
Conditions: for FAAH ABPP (10 µm) % Eff.: 10 µM inhibitor, TAMRA-FP 500 nM, mouse brain proteome, vehicle set to 100%
Experimental: For gel based ABPP experiments mouse brain proteome (2.0 mg/mL, 20 µL) was preincubated for 30 min with vehicle (DMSO) or compound to be tested in 0.5 µL DMSO at rt. And subsequently treated with 500 nM (final concentration) TAMRA-FP (TAMRA-FP was bought at Thermo Fischer) for 15 minutes at rt. The reactions were quenched with 10 µL standard 3 x SDS page sample buffer. The samples were directly loaded and resolved on SDS page gel (10 % acrylamide). The gels were scanned with a ChemiDoc MP sytem (Biorad, Cy 3 settings, 605/50 filter) and analyzed using Image Lab 4.1.
The percentage effect on FAAH was determined by measuring the integrated optical intensity of the band corresponding to FAAH (∼ 63 kD for mouse) using Image lab software. This activity was corrected for the total protein loading per lane as determined by coomassie staining and imaging with a ChemiDoc™ MP sytem (Biorad) followed by determination of the integrated optical intensity per lane by using Image Lab 4.1 software. The intensity of the protein bands from the samples treated with vehicle was set to 100%. […] N/A means less than 50% probe displacement at 10 µM inhibitor concentration.

Structure (SMILES)	FAAH ABPP (10 µm) % Eff.	FAAH labeling (up to a concentration of 10 µM, n=3)
O=C(CCCCCc1ccccc1)c1nc2ncccc2o1 [Compound 1, 1-(Oxazolo[4,5-b]pyridin-2-yl)-6-phenylhexan-1-one, reference compound]	99%	
Cc1ccc(-c2cnc3nc(C(=O)CCCCCc4ccccc4)oc3c2)cc1 [Compound 25, 1-(6-(p-Tolyl)oxazolo[4,5-b]pyridin-2-yl)-6-phenylhexan-1-one]	N/A (N/A means less than 50% probe displacement at 10 µM inhibitor concentration)	did not block FAAH labeling
